Measurements reported in patent US8822698B2, “Aminoacid derivatives, their process of preparation and their therapeutical uses as inhibitors of oncogenic signals by the Met family” (Universite D'Aix-Marseille, priority 2009, dated 2014).
Like-named read-outs stand apart in the source and are kept apart here.

Tests used:
MDCK cells = experiment: Toxicity observed in the cell scattering screening; type: cell-based
Procedure: (§1) For scattering assays, MDCK cells were pre-incubated with compounds for 2 hours at 0.1-100 μM concentrations at 37° C. in a humidified atmosphere of 5% CO2, followed by 24 hr stimulation with 20 ng/ml HGF (R&D Systems), as previously described (Patane et al., Biochem Biophys Res Commun 375, 184-189, 2008). The cells were further incubated at 37° C. in an atmosphere of 5% CO2 for 24-48 hours, washed with phosphate-buffered saline (PBS; Gibco BRL), and fixed in PFA (Sigma). The quantification of scattering response was performed by counting the number of cells with scattered morphology in 30 independent colonies. The […] corresponds to the concentration of compounds leading to a 50% inhibition of Met-triggered cell scattering. Active compounds were assayed to impair scattering response also on human breast MCF10A cells following the same procedure. For survival assays, GTL-16, HepG2 and U-87 cells were cultured in serum-free media for 24 hours prior to compound addition for 48 hours. Viability was assessed with the Cell Titer Glo Luminescent Assay (Promega). For in vitro tumorigenesis, soft agar growth assays were preformed using GTL-16, HepG2, and U-87 cells, as previously described (Patane et al., Cancer Res 66, 4750-4757, 2006).
Compounds of examples 1 (XIII), 2 (XIV), 4 (XVI), 5 (XVII), and 6 (XVIII) in particular elicit inhibitory activity on Met-triggered cell scattering. […] The SU11274 (Met inhibitor; Sugen) was used as reference compound. […] These findings were further supported by analysing the inhibitory activity of compounds on breast cells. […] Altogether, these studies identify a new class of compounds of general formula (I), which are able to interfere with Met-triggered cell scattering.

HepG2 cells = experiment: Soft agar anchorage-independent growth (in vitro tumorigenesis), HepG2; type: cell-based; settings: Homo sapiens, read-out: HepG2 IC 50
Procedure: (§2) MDCK cells were grown in Dulbecco's modified Eagle's medium (DMEM) (Gibco BRL) containing 4 mM L-glutamine and supplemented with 2% (v/v) foetal bovine serum (Gibco BRL), 100 U/mL penicillin, and 100 μg/mL streptomycin. Cells were plated at a density of 1000 cells per well in 24-well microplates and allowed to settle overnight at 37° C. in a humidified atmosphere of 5% CO2 prior to treatments. MCF10A human breast cells, MDA-MB231 human breast cancer cells, GTL-16 human gastric carcinoma cells, HepG2 human hepatocellular carcinoma cells, U-87 human glioblastoma-astrocytoma cells and LLC Lewis lung carcinoma cells were grown in RPMI medium (Gibco BRL) containing 4 mM L-glutamine and supplemented with 2% (v/v) foetal bovine serum (Gibco BRL), 100 U/mL penicillin, and 100 μg/mL streptomycin and kept at 37° C. in a humidified atmosphere of 5% CO2.
For scattering assays, MDCK cells were pre-incubated with compounds for 2 hours at 0.1-100 μM concentrations at 37° C. in a humidified atmosphere of 5% CO2, followed by 24 hr stimulation with 20 ng/ml HGF (R&D Systems), as previously described (Patane et al., Biochem Biophys Res Commun 375, 184-189, 2008). […] The quantification of scattering response was performed by counting the number of cells with scattered morphology in 30 independent colonies. […] Viability was assessed with the Cell Titer Glo Luminescent Assay (Promega). […]

[1] = test system: Met phosphorylation, HepG2 cells; experiment: Met phosphorylation upon HGF stimulation in HepG2 cells; type: cell-based, human
Procedure: After starvation, cells were pretreated with inhibitors, then stimulated with HGF, and total extracts were analyzed as described (Maina et al., Mol Cell 7, 1293-1306, 2001). Antibodies used were anti-tubulin (Sigma), anti-phospho Y1234-1235-Met, anti-Akt, anti-phospho-Akt, anti-phospho-Gab1, anti phosphor-ErbBs, anti-phospho-PDGFR, anti-PDGFRs, anti-ERKs (Cell Signaling), anti-ErbBs, anti-Met (Santa Cruz).
Activation of Met by HGF can be biochemically evaluated by following its phosphorylation levels and activation of downstream targets. We started to biochemically characterise the inhibitory properties of identified compounds by following Met phosphorylation and its downstream targets in HepG2 cells. […] These findings were further supported using other cell lines, such as MDA-MB231 human breast cancer cells (FIG. 2).

[2] = test system: Met-triggered cell scattering, MDCK cells; experiment: HGF-induced MDCK cell scattering assay; type: cell-based; settings: Canis lupus familiaris
Procedure: as §2, §1
Compounds were first submitted to a biological screening of cell motility, namely scattering response. MDCK epithelial cells acquire a “scattered phenotype” following stimulation by the Met ligand, HGF (Chan et al., J Biomol Screen. 13, 847-854, 2008; Corso et al., Trends Mol Med 11, 284-292, 2005; Patane et al., Biochem Biophys Res Commun 375, 184-189, 2008), allowing direct evaluation of compounds on Met functions. The Met inhibitor […] was used as control in all assays (Schiering et al., Proc Natl Acad Sci USA 100, 12654-12659, 2003).

GTL-16 cells [3] = settings: Zou et al., 2007; cited from earlier work
GTL-16 cells [4] = experiment: Soft agar anchorage-independent growth (in vitro tumorigenesis), GTL-16; type: cell-based, human; settings: Homo sapiens; soft agar growth, GTL-16
Procedure: as §2
as §1, with “2006). […]” for “2006).”

[5] = MDCK cells, 20 ng/ml HGF, read-out: IC50 scattering inhibition

Row | Compound | Toxicity (MDCK cells; Table 1, scattering screening) | IC50 [2, 5] | further results
1 | O=C(Cc1cc(F)cc(F)c1)N[C@@H](Cc1ccccc1)C(=O)Nc1ccc(-c2cn3c(n2)sc2ccccc23)cc1 [Example 6] | >100 µM | – | –
2 | Cc1cc(C)cc(CC(=O)N[C@@H](Cc2ccccc2)C(=O)Nc2ccc(-c3cn4c(n3)sc3ccccc34)cc2)c1 [Example 1, (S)-2-(3,5-dimethylphenylacetamido)-3-phenyl-N-[4-(imidazo[2,1-b]benzothiazol-2-yl)phenyl]propanamide] | >100 µM | – | IC50 (HepG2 cells): 2.73 µM; Met phosphorylation [1]: significantly reduced
3 | C[C@@H](NC(=O)Cc1cc(F)cc(F)c1)C(=O)Nc1ccc(-c2cn3c4c(sc3n2)CCCC4)cc1 [reference compound] | – | – | IC50 ([2]; MDCK, comparative compound, same test, read-out: Scattering inhibition): 10 µM; Toxicity (MDCK cells; comparative compound, toxic at this concentration): at 100 μM
4 | Cc1cc(C)cc(CC(=O)N[C@H](Cc2ccccc2)C(=O)Nc2ccc(-c3cn4c(n3)sc3ccccc34)cc2)c1 [Example 2, (R)-2-(3,5-dimethylphenylacetamido)-3-phenyl-N-[4-(imidazo[2,1-b]benzothiazol-2-yl)phenyl]propanamide] | >100 µM | – | –
5 | Cc1[nH]c(/C=C2\C(=O)Nc3ccc(S(=O)(=O)N(C)c4cccc(Cl)c4)cc32)c(C)c1C(=O)N1CCN(C)CC1 [SU11274, (3Z)—N-(3-Chlorophenyl)-3-({3,5-dimethyl-4-[(4-methylpiperazin-1-yl)carbonyl]-1H-pyrrol-2-yl}methylene)-N-methyl-2-oxo-2,3-dihydro-1H-indole-5-sulfonamide, reference compound] | – | 0.251 µM | Soft-agar growth of GTL-16 cells (GTL-16 cells [3]): impaired
6 | O=C(Cc1cc(C(F)(F)F)cc(C(F)(F)F)c1)N[C@H](Cc1ccccc1)C(=O)Nc1ccc(-c2cn3c(n2)sc2ccccc23)cc1 [Example 5, (R)-2-(3,5-bis(trifluoromethyl)phenylacetamido)-3-phenyl-N-[4-(imidazo[2,1-b]benzothiazol-2-yl)phenyl]propanamide] | >50 µM | 0.206 µM | IC50 (GTL-16 cells [4]): 1.19 µM
